Assay: Slurry experiments in water (physical form stability)
Assay type: physicochemical
Protocol: Form H3 may be formed by slurrying Form A in water. Form H3 may convert back to Form A with some minor amorphous contents within some time, and completely convert to amorphous phase upon further slurrying within further time.
Form H3 was prepared by slurry of Form A in water upon stirring. Form H3 converted back to Form A with some minor amorphous content within 2 days, and completely converted to amorphous phase upon slurry within 8 days. After additional 7 days (i.e. day 15 of slurry experiments), the amorphous phase converted further to Form D (tetrahydrate) with high crystallinity.

| Structure (SMILES) | solid form conversion when suspended in water (suspended in water, trihydrate form (H3) and tetrahydrate (Form D)) | time for complete conversion to amorphous phase (slurry in water upon stirring) | time for conversion back to Form A with some minor amorphous content (slurry in water upon stirring) |
| --- | --- | --- | --- |
| COc1ccc(CN(C(=O)C(N)Cc2c(C)cc(C(N)=O)cc2C)C(C)c2nc(-c3ccccc3)c[nH]2)cc1C(=O)O (stereo not drawn) [Form A, 5-({[2-Amino-3-(4-carbamoyl-2,6-dimethyl-phenyl)-propionyl]-[1-(4-phenyl-1H-imidazol-2-yl)-ethyl]-amino}-methyl)-2-methoxy-benzoic acid] | converts to hydrated crystalline forms | – | – |
| COc1ccc(CN(C(=O)C(N)Cc2c(C)cc(C(N)=O)cc2C)C(C)c2nc(-c3ccccc3)c[nH]2)cc1C(=O)O (stereo not drawn) [Form H3, 5-({[2-amino-3-(4-carbamoyl-2,6-dimethyl-phenyl)-propionyl]-[1-(4-phenyl-1H-imidazol-2-yl)-ethyl]-amino}-methyl)-2-methoxy-benzoic acid] | – | ≤ 8 days | ≤ 2 days |

From US20230118152A1, “FORMS OF 5-({[2-AMINO-3-(4-CARBAMOYL-2,6-DIMETHYL-PHENYL)-PROPIONYL]-[1-(4-PHENYL-1H-IMIDAZOL-2-YL)-ETHYL]-AMINO}-METHYL)-2-METHOXY-BENZOIC ACID” (Allergan Holdings Unlimited Company, priority 2020, published 2023)
